Results on 21 compounds are retold here after patent US10717716B2, “1,3,4-oxadiazole derivative compounds as histone deacetylase 6 inhibitor, and the pharmaceutical composition comprising the same” (Chong Kun Dang Pharmaceutical Corp., priority 2015, dated 2020).

This test deals with T1, human recombinant HDAC6 (Homo sapiens, UniProt Q9UBN7).
T1 construct: purchased Calbiochem 382180
T1 sequence (Q9UBN7 1-1215): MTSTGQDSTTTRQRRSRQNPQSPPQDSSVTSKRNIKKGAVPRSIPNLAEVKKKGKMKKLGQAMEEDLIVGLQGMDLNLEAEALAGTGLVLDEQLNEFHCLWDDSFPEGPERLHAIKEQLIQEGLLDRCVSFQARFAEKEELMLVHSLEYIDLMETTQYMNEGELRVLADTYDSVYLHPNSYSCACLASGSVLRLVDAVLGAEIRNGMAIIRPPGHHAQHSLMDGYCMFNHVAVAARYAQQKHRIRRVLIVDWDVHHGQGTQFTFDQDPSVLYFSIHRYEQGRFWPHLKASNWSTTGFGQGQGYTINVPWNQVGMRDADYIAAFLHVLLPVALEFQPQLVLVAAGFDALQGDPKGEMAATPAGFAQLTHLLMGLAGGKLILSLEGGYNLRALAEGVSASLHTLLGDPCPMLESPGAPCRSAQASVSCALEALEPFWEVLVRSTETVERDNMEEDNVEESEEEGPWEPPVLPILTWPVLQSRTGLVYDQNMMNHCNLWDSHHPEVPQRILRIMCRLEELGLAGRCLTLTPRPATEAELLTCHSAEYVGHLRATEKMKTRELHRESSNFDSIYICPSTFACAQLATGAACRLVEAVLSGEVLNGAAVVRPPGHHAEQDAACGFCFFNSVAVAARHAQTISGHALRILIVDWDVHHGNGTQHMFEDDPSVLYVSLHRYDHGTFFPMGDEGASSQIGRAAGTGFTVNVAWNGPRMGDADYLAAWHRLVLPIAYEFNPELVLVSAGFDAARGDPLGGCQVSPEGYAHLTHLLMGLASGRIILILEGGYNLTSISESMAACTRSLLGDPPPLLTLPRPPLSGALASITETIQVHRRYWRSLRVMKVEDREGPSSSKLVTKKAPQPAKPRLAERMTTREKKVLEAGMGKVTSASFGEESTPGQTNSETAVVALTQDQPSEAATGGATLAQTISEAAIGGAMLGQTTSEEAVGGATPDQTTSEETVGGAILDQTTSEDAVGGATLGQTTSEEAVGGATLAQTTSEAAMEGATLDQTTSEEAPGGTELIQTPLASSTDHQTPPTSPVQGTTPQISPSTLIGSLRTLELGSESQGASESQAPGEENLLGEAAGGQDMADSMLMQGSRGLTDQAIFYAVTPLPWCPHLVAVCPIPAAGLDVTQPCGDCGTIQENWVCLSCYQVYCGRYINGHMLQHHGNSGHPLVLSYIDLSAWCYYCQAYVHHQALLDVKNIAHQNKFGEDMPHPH
The test can be described thus: HDAC6 enzyme activity inhibition assay (HDAC Fluorimetric Drug Discovery Kit). In kind it is biochemical. Conditions: for HDAC6 selectivity (fold): HDAC6 over HDAC1; for IC50: human recombinant HDAC6, same protocol as HDAC1, read-out: HDAC6. Here is the method: In order to examine the HDAC6 selectivity of the compounds of formula I of the present invention by HDAC1 and HDAC6 enzymatic activity inhibition assays, an experiment was performed using a conventional substance as a control.
HDAC enzyme activity was measured using a HDAC Fluorimetric Drug Discovery Kit (BML-AK511, 516, Enzo Life Science). For the HDAC1 enzyme activity test, human recombinant HDAC1 (BML-SE456) was used as an enzyme source, and Fluor de Lys®-“SIRT1 (BNL-KI177) was used as a substrate. A 5-fold dilution of the compound was seeded into a 96-well plate, and then 0.3 μg of the enzyme and 10 μM of the substrate were added to each well of the plate and allowed to react at 30° C. for 60 minutes. Then, Fluor de Lys®-Developer II (BML-KI176) was added thereto and allowed to react for 30 minutes, after which the fluorescence value (Ex 360, Em 460) was measured using a multi-plate reader (Flexstation 3, Molecular Device). The HDAC6 enzyme was tested using human recombinant HDAC6 (382180) (Calbiochem) according to the same protocol as the HDAC1 enzyme activity test method. Based on the resulting values, each IC5, value was calculated using GraphPad Prism4.0 program.

Turning to `CCNC(=O)N(Cc1ccc(-c2nnc(C(F)(F)F)o2)cc1)c1ccccc1` [Compound 21353, 3-Ethyl-1-phenyl-1-(4-(5-(trifluoromethyl)-1,3,4-oxadiazol-2-yl)benzyl)urea], the “HDAC6 selectivity (fold)” value was 14 fold and the IC50 was 720 nM.
The like results for `CCCNC(=O)N(Cc1ccc(-c2nnc(C(F)(F)F)o2)cc1)c1ccccc1` [Compound 21354, 1-Phenyl-3-propyl-1-(4-(5-(trifluoromethyl)-1,3,4-oxadiazol-2-yl)benzyl)urea] were, in that order, 26 fold and 380 nM.
The like results for `O=C(N1CCOCC1)N(Cc1ccc(Cc2nnc(C(F)(F)F)o2)cc1)c1ccccc1` [Compound 21355, N-phenyl-N-(4-((5-(trifluoromethyl)-1,3,4-oxadiazol-2-yl)methyl)benzyl)morpholine-4-carboxamide] were, in that order, 1 fold and 6910 nM.
The like results for `O=C(NCC1CCOCC1)N(Cc1ccc(-c2nnc(C(F)(F)F)o2)cc1)c1ccccc1` [Compound 21357, 1-Phenyl-3-((tetrahydro-2H-pyran-4-yl)methyl)-1-(4-(5-(trifluoromethyl)-1,3,4-oxadiazol-2-yl)benzyl)urea] were, in that order, 21 fold and 472 nM.
Take `O=C(N1CCN(c2ccccc2)CC1)N(Cc1ccc(-c2nnc(C(F)(F)F)o2)cc1)c1ccccc1` [Compound 21358, N,4-diphenyl-N-(4-(5-(trifluoromethyl)-1,3,4-oxadiazol-2-yl)benzyl)piperazine-1-carboxamide]: the “HDAC6 selectivity (fold)” value came to 10 fold and the IC50 was determined as 1050 nM.
Turning to `O=C(N1CC=C(c2ccccc2)CC1)N(Cc1ccc(-c2nnc(C(F)(F)F)o2)cc1)c1ccccc1` [Compound 21359, N,4-diphenyl-N-(4-(5-(trifluoromethyl)-1,3,4-oxadiazol-2-yl)benzyl)-3,6-dihydropyridine-1(2H)-carboxamide], the “HDAC6 selectivity (fold)” value is 4 fold and the IC50 was found to be 2280 nM.
On the same counts, the results for `O=C(N1CCS(=O)(=O)CC1)N(Cc1ccc(-c2nnc(C(F)F)o2)cc1)c1ccccc1` [Compound 21360, N-(4-(5-(difluoromethyl)-1,3,4-oxadiazol-2-yl)benzyl)-N-phenylthiomorpholine-4-carboxamide 1,1-dioxide] are 282 fold and 35.4 nM.
Take `O=C(N1CCS(=O)(=O)CC1)N(Cc1ccc(-c2nnc(C(F)(F)F)o2)cc1)c1ccccc1` [Compound 21361, N-phenyl-N-(4-(5-(trifluoromethyl)-1,3,4-oxadiazol-2-yl)benzyl)thiomorpholine-4-carboxamide 1,1-dioxide]: the “HDAC6 selectivity (fold)” value came out at 147 fold and the IC50 came out at 67.8 nM.
The like results for `O=C(N1CCNCC1)N(Cc1ccc(-c2nnc(C(F)(F)F)o2)cc1)c1ccccc1` [Compound 21362, N-phenyl-N-(4-(5-(trifluoromethyl)-1,3,4-oxadiazol-2-yl)benzyl)piperazine-1-carboxamide] were, in that order, 180 fold and 55.7 nM.
Take `CS(=O)(=O)N1CCN(C(=O)N(Cc2ccc(-c3nnc(C(F)(F)F)o3)cc2)c2ccccc2)CC1` [Compound 21363, 4-(Methylsulfonyl)-N-phenyl-N-(4-(5-(trifluoromethyl)-1,3,4-oxadiazol-2-yl)benzyl)piperazine-1-carboxamide]: the “HDAC6 selectivity (fold)” value came out at 118 fold and the IC50 came out at 84.8 nM.
With `CC(=O)N1CCN(C(=O)N(Cc2ccc(-c3nnc(C(F)(F)F)o3)cc2)c2ccccc2)CC1` [Compound 21364, 4-Acetyl-N-phenyl-N-(4-(5-(trifluoromethyl)-1,3,4-oxadiazol-2-yl)benzyl)piperazine-1-carboxamide], the “HDAC6 selectivity (fold)” value amounted to 108 fold and the IC50 turned out to be 92.4 nM.
The like results for `CC(C)C(=O)N1CCN(C(=O)N(Cc2ccc(-c3nnc(C(F)(F)F)o3)cc2)c2ccccc2)CC1` [Compound 21365, 4-Isobutyryl-N-phenyl-N-(4-(5-(trifluoromethyl)-1,3,4-oxadiazol-2-yl)benzyl)piperazine-1-carboxamide] were, in that order, 69 fold and 145 nM.
The like results for `CCC(=O)N1CCN(C(=O)N(Cc2ccc(-c3nnc(C(F)(F)F)o3)cc2)c2ccccc2)CC1` [Compound 21366, N-phenyl-4-propionyl-N-(4-(5-(trifluoromethyl)-1,3,4-oxadiazol-2-yl)benzyl)piperazine-1-carboxamide] were, in that order, 79 fold and 126 nM.
On the same counts, the results for `O=C(N1CCN(C(=O)C(F)(F)F)CC1)N(Cc1ccc(-c2nnc(C(F)(F)F)o2)cc1)c1ccccc1` [Compound 21367, N-phenyl-4-(2,2,2-trifluoroacetyl)-N-(4-(5-(trifluoromethyl)-1,3,4-oxadiazol-2-yl)benzyl)piperazine-1-carboxamide] are 43 fold and 234 nM.
Take `O=C(NCc1ccccc1)N(Cc1ccc(-c2nnc(C(F)(F)F)o2)cc1)c1ccccc1` [Compound 21368, 3-Benzyl-1-phenyl-1-(4-(5-(trifluoromethyl)-1,3,4-oxadiazol-2-yl)benzyl)urea]: the “HDAC6 selectivity (fold)” value stood at 24 fold and the IC50 amounted to 420 nM.
On the same counts, the results for `O=C(N1CCS(=O)(=O)CC1)N(Cc1ccc(-c2nnc(C(F)(F)F)o2)cc1F)c1ccccc1` [Compound 21369, N-(2-fluoro-4-(5-(trifluoromethyl)-1,3,4-oxadiazol-2-yl)benzyl)-N-phenylthiomorpholine-4-carboxamide 1,1-dioxide] are 179 fold and 56 nM.
On the same counts, the results for `O=C(N1CCS(=O)(=O)CC1)N(Cc1ccc(-c2nnc(C(F)F)o2)cc1F)c1ccccc1` [Compound 21370, N-(4-(5-(difluoromethyl)-1,3,4-oxadiazol-2-yl)-2-fluorobenzyl)-N-phenylthiomorpholine-4-carboxamide 1,1-dioxide] are 400 fold and 25 nM.
As to `O=C(N1CCS(=O)(=O)CC1)N(Cc1ccc(-c2nnc(C(F)(F)F)o2)cc1)C1CCCC1` [Compound 21371, N-cyclopentyl-N-(4-(5-(trifluoromethyl)-1,3,4-oxadiazol-2-yl)benzyl)thiomorpholine-4-carboxamide 1,1-dioxide], the “HDAC6 selectivity (fold)” value is reported as 9 fold and the IC50 came out at 1090 nM.
On the same counts, the results for `O=C(N1CCS(=O)(=O)CC1)N(Cc1ccc(-c2nnc(C(F)(F)F)o2)cn1)c1ccccc1` [Compound 21372, N-phenyl-N-((5-(5-(trifluoromethyl)-1,3,4-oxadiazol-2-yl)pyridin-2-yl)methyl)thiomorpholine-4-carboxamide 1,1-dioxide] are 132 fold and 76 nM.
The like results for `O=C(N1CCS(=O)(=O)CC1)N(Cc1ccc(-c2nnc(C(F)F)o2)cn1)c1ccccc1` [Compound 21373, N-((5-(5-(difluoromethyl)-1,3,4-oxadiazol-2-yl)pyridin-2-yl)methyl)-N-phenylthiomorpholine-4-carboxamide 1,1-dioxide] were, in that order, 500 fold and 20 nM.
On the same counts, the results for `O=C(N1CCS(=O)(=O)CC1)N(Cc1ccccc1)Cc1ccc(-c2nnc(C(F)(F)F)o2)cc1` [Compound 21374, N-benzyl-N-(4-(5-(trifluoromethyl)-1,3,4-oxadiazol-2-yl)benzyl)thiomorpholine-4-carboxamide 1,1-dioxide] are 10 fold and 1010 nM.
